Experimental data: US20230129036A1, “AVENANTHRAMIDE COMPOSITIONS WITH IMPROVED SOLUBILITY COMPRISING 4-HYDROXYPHENONE” (priority 2020, published 2023)
Blank lines part the entries; values can stand above or below the compound they belong to.

Legend:
[1] = Solubility / appearance of avenanthramide solutions with and without 4-hydroxyacetophenone, evaluated at 22° C.; assay type: physicochemical
Protocol: The solubility of avenanthramides A, B, C, D or L and Dihydroavenanthramide D in solution in combination with 4-hydroxyacetophenone in different concentrations was evaluated against a solution of avenanthram ides A, B, C, D and L without 4-hydroxyacetophenone.
The corresponding avenanthramides were presolved in ethanol or glycol. Water and 4-hydroxyacetophenone were added under stirring and heating up the solution to 60° C. The appearance of the solutions was evaluated at 22° C. according to the following Table 1: […]

[2] = Avn C, followed by Avn B and Avn A; cited from earlier work
[3] = addition of 4-hydroxyacetophenone in concentration of 0.1 or 0.5 wt % (Table 3, Table 4 b)

Effect of 4-hydroxyacetophenone on solubility ([1]; 4-hydroxyacetophenone 0.01 wt %): improves the solubility
SMILES: O=C(C=Cc1ccc(O)cc1)Nc1ccc(O)cc1C(=O)O [Avenanthramide A, N-(4′-hydroxycinnamoyl)-5-hydroxyanthranilic acid]
Appearance of solution [1, 3]: clear solutions without turbidity or precipitation

SMILES: O=C(C=Cc1ccc(O)c(O)c1)Nc1ccc(O)cc1C(=O)O [Avenanthramide C, N-(3′-4′-dihydroxycinnamoyl)-5-hydroxyanthranilic acid]
Antioxidant activity, ranking among Avns [2]: highest activity

Appearance of solution ([1]; 4-hydroxyacetophenone concentration increased to 0.5% as in Table 4 b): clear solution | Effect of addition of 4-hydroxyacetophenone on solubility / appearance ([1]; versus solution without 4-hydroxyacetophenone, increasing concentration): improved
SMILES: O=C(/C=C/C=C/c1ccc(O)cc1)Nc1ccc(O)cc1C(=O)O [Avenanthramide L]
Appearance of solution [1, 3]: clear solutions without turbidity or precipitation

SMILES: O=C(CCc1ccc(O)cc1)Nc1ccccc1C(=O)O [Dihydroavenanthramide D, 2-[(3-(4-hydroxyphenyl)propanoyl]amido)benzoic acid]
Appearance of solution ([1]; addition of 4-hydroxyacetophenone in concentrations of 0.5 to 1.0% (Tables 7 a and 7 b)): clear solutions withouts turbidity or precipitation
